Reference: ChEMBL document CHEMBL1201862, “PubChem BioAssay data set” (2004)
The source made the active and inactive calls.

Columns and labels:
Coagulation factor XII = biological target: T1, Coagulation factor XII (Homo sapiens, UniProt P00748); type: functional;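 also: activated factor XIIa alpha cleaving a fluorogenic AMC peptide substrate; inhibitor potency from loss of enzyme activity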
T1 sequence (P00748 whole entry): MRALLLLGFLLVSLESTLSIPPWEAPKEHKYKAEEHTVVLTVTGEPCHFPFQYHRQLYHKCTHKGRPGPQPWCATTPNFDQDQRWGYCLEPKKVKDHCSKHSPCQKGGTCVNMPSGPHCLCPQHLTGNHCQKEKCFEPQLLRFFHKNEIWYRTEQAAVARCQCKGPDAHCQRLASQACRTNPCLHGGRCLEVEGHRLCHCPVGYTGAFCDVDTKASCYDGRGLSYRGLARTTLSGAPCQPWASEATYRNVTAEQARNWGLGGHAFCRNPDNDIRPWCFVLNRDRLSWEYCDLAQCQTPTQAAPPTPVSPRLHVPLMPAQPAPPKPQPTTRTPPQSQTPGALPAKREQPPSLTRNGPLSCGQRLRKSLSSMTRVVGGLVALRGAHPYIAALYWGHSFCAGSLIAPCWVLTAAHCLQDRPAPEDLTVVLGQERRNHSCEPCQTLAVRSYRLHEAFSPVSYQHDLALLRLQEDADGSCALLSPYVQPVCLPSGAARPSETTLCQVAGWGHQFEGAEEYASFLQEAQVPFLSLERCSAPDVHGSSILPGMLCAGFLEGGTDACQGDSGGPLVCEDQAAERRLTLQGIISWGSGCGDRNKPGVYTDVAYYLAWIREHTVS

[1] = biological target: T2, Microphthalmia-associated transcription factor (Homo sapiens, UniProt O75030); assay: reducers of TRPM1 reporter luminescence, concentration series – cell-based, SK-MEL-5, cherry-picked, set 3, MITF inhibitor project, dose response (AID 493073); type: functional;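 also: SK-MEL-5 melanoma cells with luciferase driven by the MITF target TRPM1 promoter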
T2 sequence (O75030 whole entry): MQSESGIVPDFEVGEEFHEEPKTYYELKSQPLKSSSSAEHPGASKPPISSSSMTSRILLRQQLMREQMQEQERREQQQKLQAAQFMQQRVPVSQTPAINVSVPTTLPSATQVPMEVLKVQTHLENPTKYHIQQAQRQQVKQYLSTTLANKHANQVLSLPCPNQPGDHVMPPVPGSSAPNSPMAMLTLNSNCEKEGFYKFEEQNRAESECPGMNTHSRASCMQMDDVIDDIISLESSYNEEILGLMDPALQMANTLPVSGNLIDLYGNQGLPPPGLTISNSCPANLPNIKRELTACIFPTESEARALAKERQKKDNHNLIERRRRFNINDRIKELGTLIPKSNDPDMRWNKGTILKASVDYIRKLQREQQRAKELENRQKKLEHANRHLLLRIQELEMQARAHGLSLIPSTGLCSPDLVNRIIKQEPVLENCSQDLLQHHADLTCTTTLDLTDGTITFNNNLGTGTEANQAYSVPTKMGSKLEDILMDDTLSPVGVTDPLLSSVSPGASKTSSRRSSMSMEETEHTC

A-375 [2] = assay: MITF: Counter assay: A375 proliferation Measured in Cell-Based System Using Plate Reader - 2084-03_Inhibitor_Dose_DryPowder_Activity. [Related pubchem assays (depositor defined):AID488944]; type: functional; details: Homo sapiens
Protein RecA = biological target: T3, Protein RecA (Mycobacterium tuberculosis, UniProt P9WHJ3); assay: Fluorescence Cell-Free Homogeneous Dose Retest to Identify Inhibitors of RecA-Intein Splicing Activity. [Related pubchem assays (depositor defined):AID2097, AID2223, AID489010, AID492950]; type: functional
T3 sequence (P9WHJ3 whole entry): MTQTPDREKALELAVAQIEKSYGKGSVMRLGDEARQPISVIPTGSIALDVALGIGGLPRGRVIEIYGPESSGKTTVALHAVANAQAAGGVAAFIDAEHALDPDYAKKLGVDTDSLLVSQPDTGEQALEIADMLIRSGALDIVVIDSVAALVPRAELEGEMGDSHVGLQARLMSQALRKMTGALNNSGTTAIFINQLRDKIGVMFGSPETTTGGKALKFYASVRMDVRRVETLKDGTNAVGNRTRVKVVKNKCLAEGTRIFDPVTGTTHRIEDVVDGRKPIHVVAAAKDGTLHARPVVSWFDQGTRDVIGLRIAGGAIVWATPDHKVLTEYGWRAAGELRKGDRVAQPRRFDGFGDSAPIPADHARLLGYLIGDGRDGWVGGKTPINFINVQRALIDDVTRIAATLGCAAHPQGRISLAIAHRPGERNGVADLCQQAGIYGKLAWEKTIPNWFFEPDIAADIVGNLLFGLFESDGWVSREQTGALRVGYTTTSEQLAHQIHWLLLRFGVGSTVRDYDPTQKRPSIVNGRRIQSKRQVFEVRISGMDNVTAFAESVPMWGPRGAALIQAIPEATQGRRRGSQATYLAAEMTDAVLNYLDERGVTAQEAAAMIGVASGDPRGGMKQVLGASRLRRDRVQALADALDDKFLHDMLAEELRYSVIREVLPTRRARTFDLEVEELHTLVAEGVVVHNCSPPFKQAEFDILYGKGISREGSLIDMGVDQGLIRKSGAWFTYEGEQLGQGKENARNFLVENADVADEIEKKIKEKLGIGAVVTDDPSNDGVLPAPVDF

[3] = biological target: T4, Replicative DNA helicase DnaB (Mycobacterium tuberculosis, UniProt P9WMR3); assay: DnaB intein splicing inhibitors, dose response, biochemical, cell-free fluorescence (AID 449749); type: functional
T4 sequence (P9WMR3 whole entry): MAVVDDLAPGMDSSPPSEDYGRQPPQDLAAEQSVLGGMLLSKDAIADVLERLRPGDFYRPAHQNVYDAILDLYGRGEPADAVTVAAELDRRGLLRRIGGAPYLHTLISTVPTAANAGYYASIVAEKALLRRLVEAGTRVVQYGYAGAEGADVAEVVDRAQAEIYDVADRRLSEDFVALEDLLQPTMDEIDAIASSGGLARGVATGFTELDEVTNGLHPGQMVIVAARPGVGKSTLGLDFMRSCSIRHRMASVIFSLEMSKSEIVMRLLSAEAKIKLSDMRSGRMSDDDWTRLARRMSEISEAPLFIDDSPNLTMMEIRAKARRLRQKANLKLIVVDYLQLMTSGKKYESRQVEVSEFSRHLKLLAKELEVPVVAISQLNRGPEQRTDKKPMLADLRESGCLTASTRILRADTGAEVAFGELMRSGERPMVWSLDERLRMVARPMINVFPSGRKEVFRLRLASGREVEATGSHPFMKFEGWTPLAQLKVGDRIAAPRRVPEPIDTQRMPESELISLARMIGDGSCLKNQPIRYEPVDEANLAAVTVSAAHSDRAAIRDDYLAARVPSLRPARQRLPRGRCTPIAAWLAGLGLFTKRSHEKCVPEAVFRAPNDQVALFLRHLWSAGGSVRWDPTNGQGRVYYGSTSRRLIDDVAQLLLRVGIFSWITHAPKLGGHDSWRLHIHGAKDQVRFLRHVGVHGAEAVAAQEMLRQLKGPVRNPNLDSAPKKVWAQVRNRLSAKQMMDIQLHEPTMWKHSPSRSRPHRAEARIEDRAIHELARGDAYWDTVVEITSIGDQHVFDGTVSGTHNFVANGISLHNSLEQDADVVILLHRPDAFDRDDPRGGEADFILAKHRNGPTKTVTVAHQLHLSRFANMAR

CAAX prenyl protease 1 = CAAX prenyl protease 1 (Saccharomyces cerevisiae S288c, UniProt P47154); assay: yeast CAAX protease Ste24 inhibition – biochemical, S. cerevisiae, plate reader, cherry-pick, dose response (AID 488815)
CAAX prenyl protease 2 = CAAX prenyl protease 2 (Homo sapiens, UniProt Q9Y256); assay: inhibition of Ras-converting CAAX protease Rce1 – biochemical, yeast membranes, quenched-peptide fluorescence, cherry-pick, dose response (AID 588849)
Trypsin = Trypsin (Sus scrofa, UniProt P00761); assay: trypsin protease activity blockade – biochemical, quenched peptide fluorescence, cherry-pick, selectivity assay for Rce1 protease inhibitor project, dose response (AID 488789)
[4] = biological target: T5, Luciferin 4-monooxygenase (Photinus pyralis, UniProt P08659); assay: inhibition of purified Photinus pyralis luciferase – biochemical, luminescence, dose response (AID 1891)
[5] = Luminescence Cell-Based Dose Confirmation HTS to Identify Inhibitors of Platelet Dense Granule Release. [Related pubchem assays: 1663 (Primary HTS), 1678 (Summary of Project)]; type: functional
[6] = biological target: Dual specificity protein phosphatase 3 (Homo sapiens, UniProt P51452); assay: SAR VHR1 Fluorescent Assay for In Vitro dose response studies Set 3. [Related pubchem assays (depositor defined):AID1654, AID1661, AID1878]; type: functional
[7] = NIH3T3 cell viability loss – ATP luminescence, mouse fibroblasts, counter-screen, dose response (AID 2010); type: functional, cell-based;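 also: cells exposed to compound for about 90 hours before reading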
[8] = reduction of Shn3 3'UTR-driven luciferase in osteoblasts – cell-based, Clone20 osteoblasts, firefly luciferase, cherry-picked, dose response (AID 624132); type: functional;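 also: firefly luciferase luminescence from reporter carrying the Shn3 3'UTR in osteoblasts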
HT-1080 = assay: HT1080 cell viability loss – fluorescence readout (AID 620); type: functional, cell-based; details: Homo sapiens
[9] = Trypanosoma cruzi growth suppression in host cells – NIH3T3 host cells, beta-gal luminescence, confirmation (AID 2044); type: functional, cell-based;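 also: intracellular parasites grown in NIH/3T3 mouse fibroblasts as host cells; luminescent beta-galactosidase reporter signal from transgenic T. cruzi replicating inside host cells; inhibitors lower the luminescence signal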
cells [10] = type: functional, cell-based
A-375 [11] = assay: proliferation inhibition in MITF-low A375 cells – cell-based, cherry-pick samples, set 2, counter-screen for MITF modulator project, dose response (AID 540335); type: functional; details: Homo sapiens
[12] = loss of viability in HepG2 cells – cell-based, CellTiter-Glo, cherry-picked, cytotoxicity control for Shn3 inhibitor project, dose response (AID 624134); type: functional
[13] = non-specific 3'UTR reporter inhibition in Clone20-Shn3RL – cell-based, Renilla luciferase, cherry-picked, counter-screen for Shn3 inhibitor project, dose response (AID 624133); type: functional
Nonstructural protein 1 = Nonstructural protein 1 (Influenza A virus, UniProt Q194T2); type: functional, Influenza A virus (A/California/07/2009(H1N1))
cells [14] = type: functional, cell-based; remark: listed apart in the source
[15] = biological target: T5, Luciferin 4-monooxygenase; assay: Counter Screen for Luciferase-based Assay Positives. [Related pubchem assays: 620, 618, 411 ]
[16] = biological target: T6, DNA repair and recombination protein RAD54-like (Homo sapiens, UniProt Q92698); assay: RAD54 Holliday junction migration blockers – biochemical, fluorescence, cherry-picked samples, dose series, confirmation (AID 651657); type: functional
T6 sequence (Q92698 whole entry): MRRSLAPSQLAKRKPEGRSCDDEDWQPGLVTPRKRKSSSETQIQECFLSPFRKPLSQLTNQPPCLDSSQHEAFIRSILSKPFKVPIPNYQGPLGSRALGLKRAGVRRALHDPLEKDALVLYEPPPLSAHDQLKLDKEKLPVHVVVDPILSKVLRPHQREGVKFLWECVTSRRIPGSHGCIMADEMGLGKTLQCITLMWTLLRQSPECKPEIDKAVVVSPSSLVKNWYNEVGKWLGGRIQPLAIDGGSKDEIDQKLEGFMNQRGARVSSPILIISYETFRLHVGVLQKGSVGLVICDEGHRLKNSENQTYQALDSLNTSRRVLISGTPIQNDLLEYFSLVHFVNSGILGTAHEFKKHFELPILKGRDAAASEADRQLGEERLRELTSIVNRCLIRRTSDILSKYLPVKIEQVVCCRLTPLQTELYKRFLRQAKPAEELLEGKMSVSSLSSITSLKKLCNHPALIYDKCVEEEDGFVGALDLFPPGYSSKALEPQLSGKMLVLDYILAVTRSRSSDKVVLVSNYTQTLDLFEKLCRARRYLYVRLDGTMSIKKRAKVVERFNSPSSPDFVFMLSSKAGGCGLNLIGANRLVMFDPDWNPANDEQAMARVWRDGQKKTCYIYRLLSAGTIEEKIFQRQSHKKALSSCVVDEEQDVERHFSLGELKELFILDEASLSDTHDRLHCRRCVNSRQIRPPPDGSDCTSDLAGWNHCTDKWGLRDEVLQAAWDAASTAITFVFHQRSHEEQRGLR

[17] = acridine orange displacement from DNA – biochemical, fluorescence polarization, cherry-pick, artefact control for RAD54 inhibitor project, dose response (AID 651673); type: functional
[18] = biological target: Dual specificity tyrosine-phosphorylation-regulated kinase 1A (Rattus norvegicus, UniProt Q63470); type: biochemical, Homo sapiens
Escherichia coli = assay: microbe, parasite or virus in culture

T5 sequence (P08659 whole entry): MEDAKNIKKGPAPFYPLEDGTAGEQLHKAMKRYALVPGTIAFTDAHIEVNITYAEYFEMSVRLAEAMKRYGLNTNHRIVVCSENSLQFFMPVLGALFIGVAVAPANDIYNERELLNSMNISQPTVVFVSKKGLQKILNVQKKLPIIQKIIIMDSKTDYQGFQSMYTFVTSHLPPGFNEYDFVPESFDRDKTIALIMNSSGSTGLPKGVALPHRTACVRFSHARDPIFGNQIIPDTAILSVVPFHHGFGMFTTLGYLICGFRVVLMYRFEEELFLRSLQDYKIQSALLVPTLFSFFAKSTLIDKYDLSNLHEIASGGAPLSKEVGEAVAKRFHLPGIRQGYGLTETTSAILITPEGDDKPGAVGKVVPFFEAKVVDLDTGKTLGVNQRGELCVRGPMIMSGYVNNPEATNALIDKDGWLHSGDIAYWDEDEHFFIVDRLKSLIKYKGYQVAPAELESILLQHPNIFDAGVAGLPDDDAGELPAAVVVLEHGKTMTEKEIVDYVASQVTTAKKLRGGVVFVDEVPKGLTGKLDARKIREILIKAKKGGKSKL
Sequence of CAAX prenyl protease 1 (P47154 whole entry): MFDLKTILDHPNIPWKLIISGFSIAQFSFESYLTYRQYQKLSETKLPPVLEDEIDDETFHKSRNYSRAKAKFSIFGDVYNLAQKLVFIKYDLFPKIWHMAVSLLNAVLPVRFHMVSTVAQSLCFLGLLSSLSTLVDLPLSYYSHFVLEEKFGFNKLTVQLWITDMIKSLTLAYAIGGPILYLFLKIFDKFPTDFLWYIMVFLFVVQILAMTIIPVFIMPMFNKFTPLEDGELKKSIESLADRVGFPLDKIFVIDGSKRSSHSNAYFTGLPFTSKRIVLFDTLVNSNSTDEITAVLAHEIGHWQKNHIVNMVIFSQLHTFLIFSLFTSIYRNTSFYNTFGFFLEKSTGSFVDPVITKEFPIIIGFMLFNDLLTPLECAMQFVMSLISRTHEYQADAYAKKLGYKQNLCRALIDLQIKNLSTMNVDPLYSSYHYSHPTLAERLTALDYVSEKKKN
Sequence of Dual specificity protein phosphatase 3 (P51452 whole entry): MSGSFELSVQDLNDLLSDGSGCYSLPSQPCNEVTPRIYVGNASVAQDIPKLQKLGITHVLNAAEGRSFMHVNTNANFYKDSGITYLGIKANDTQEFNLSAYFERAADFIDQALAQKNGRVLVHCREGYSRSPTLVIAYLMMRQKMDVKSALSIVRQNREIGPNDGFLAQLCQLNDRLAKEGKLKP
Sequence of CAAX prenyl protease 2 (Q9Y256 whole entry): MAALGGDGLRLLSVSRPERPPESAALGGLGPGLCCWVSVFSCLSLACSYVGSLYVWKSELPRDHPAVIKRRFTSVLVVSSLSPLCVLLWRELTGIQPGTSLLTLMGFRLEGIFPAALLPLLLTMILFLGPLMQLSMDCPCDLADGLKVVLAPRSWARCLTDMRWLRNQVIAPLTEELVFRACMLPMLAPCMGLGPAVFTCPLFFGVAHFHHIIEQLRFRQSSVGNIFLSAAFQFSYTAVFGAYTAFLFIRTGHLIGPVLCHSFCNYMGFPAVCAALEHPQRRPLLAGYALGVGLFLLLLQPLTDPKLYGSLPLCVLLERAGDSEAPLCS
Sequence of Trypsin (P00761 whole entry): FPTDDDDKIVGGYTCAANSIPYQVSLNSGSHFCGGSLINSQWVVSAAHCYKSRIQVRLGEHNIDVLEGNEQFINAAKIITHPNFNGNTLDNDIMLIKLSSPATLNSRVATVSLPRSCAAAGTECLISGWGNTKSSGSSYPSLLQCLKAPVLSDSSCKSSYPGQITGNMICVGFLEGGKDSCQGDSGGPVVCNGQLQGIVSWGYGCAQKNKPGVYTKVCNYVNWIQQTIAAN
Sequence of Nonstructural protein 1 (Q194T2 whole entry): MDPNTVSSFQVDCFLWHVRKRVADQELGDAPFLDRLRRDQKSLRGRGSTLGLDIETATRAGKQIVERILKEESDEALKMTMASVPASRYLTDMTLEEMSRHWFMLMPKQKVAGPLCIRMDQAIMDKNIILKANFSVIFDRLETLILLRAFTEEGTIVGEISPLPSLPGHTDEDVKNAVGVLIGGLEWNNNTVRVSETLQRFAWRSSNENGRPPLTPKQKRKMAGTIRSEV

## O=c1c(Cl)c(Cl)cnn1Cc1ccc(F)cc1
Coagulation factor XII
  IC50: > 50 µM (inactive)
[1]
  AC50: 8.9 µM (active)
A-375 [2]
  AC50: 30.8 µM (active)
Protein RecA
  EC50: 11.3 µM (active)
[3]
  AC50: 39.5 µM (active)

## CCn1c(-c2cccs2)nc2ccccc21
CAAX prenyl protease 1
  AC50: 2.54 µM (active)
CAAX prenyl protease 2
  AC50: 11.6 µM (active)
Trypsin
  AC50: 6.83 µM (active)
[4]
  EC50: > 112 µM (not active)
[5]
  EC50: > 112 µM (not active)

## CSc1ccc2nc(Nc3nnc(-c4ccc5c(c4)OCCO5)o3)sc2c1
[6]
  IC50: 0.682 µM (active)

## Oc1c(CN2CCCCC2)cc(COCc2ccccc2)c2cccnc12
[7]
  EC50: 6.52 µM (active)
[1]
  AC50: 2.17 µM (active)
[8]
  AC50: 0.537 µM (active)
HT-1080
  EC50: 27.9 µM (active)
[9]
  EC50: 4.04 µM (active)
Cells [10]
  EC50: 7.62 µM (active)
A-375 [11]
  AC50: 13.5 µM (active)
[12]
  AC50: 10.8 µM (active)
[13]
  AC50: 7.15 µM (active)
Nonstructural protein 1
  IC50: 1.86 µM (active)
Cells [14]
  EC50: > 350 µM (not active)
[15]
  EC50: > 100 µM (not active)

## COc1ccc2cc3cc(C(=O)NCCCN4CCOCC4)oc3nc2c1
[7]
  EC50: > 60 µM (not active)
[16]
  AC50: 36.7 µM (active)
[9]
  EC50: 2.2 µM (active)
[17]
  AC50: 55.3 µM (active)
[18]
  AC50: 5.51 µM (active)

## COc1ccccc1C(C[N+](=O)[O-])c1c[nH]c2ccccc12 (centres undefined)
Escherichia coli
  AC50: 90.9 µM (active)
